Laboratory results taken from patent US11952586B2, “B-cell cultivation method” (Hoffmann-La Roche Inc., priority 2017, dated 2024).

System: single deposited B-cells
Assay: co-cultivation of single deposited B-cells with EL-4 B5 feeder cells; IgG in supernatant by ELISA
Type: cell-based, rabbit
Settings: for average productivity/plate, IgG+ wells / frequency/plate rbIgG+: non-immunized animal
Protocol: Single cell sorted B-cells were cultured in 96-well plates with 200 μl/well EL-4 B5 medium with Pansorbin Cells (SAC) (Calbiochem (Merck), Darmstadt, Deutschland), EL-4 B5 cells (0-5×10^4/well) and rabbit thymocyte supernatant or cytokine mix, respectively, for 7 days at 37° C. in an atmosphere of 5% CO2 in the incubator. B-cell culture supernatants were removed for screening and the cells harvested immediately for variable region gene cloning or frozen at −80° C. in 100 μl RLT buffer (Qiagen, Hilden, Germany).
A mixture of 0.5 μg/ml of biotinylated mouse anti-rabbit IgG antibody (Sigma-Aldrich) and 0.35 μg/ml anti-rabbit IgG HRP conjugate (Sigma-Aldrich) was transferred to 384 well streptavidin coated microtiter plates (MicroCoat Biotechnologie GmbH). Dilutions of B-cell supernatants in PBS supplemented with 0.5% BSA and 0.05% Tween®-20 were added and incubated for 90 min at RT. After repeated washing (6×) with PBST (phosphate buffered saline with 0.2% Tween buffer the plates were developed with BM Blue® HRP substrate solution and color formation was measured by absorbance at 370 nm. A commercial rabbit IgG (Sigma-Aldrich) was used as a calibration standard.

[1] = PMA 0.25 ng/ml, 50 Gy, 50k/Well
[2] = PMA 0.57 ng/ml, 50 Gy, 50k/Well
[3] = PMA 1.3 ng/ml, 3 Gy, 15k/Well, HSA immunized rabbit
[4] = c(PMA) 0.015 ng/ml, 4 Gy EL-4 B5
[5] = c(PMA) 0.03 ng/ml, 4 Gy EL-4 B5
[6] = c(PMA) 0.03 ng/ml, 50 Gy EL-4 B5
[7] = c(PMA) 0.06 ng/ml, 4 Gy EL-4 B5
[8] = c(PMA) 0.125 ng/ml, 4 Gy EL-4 B5
[9] = c(PMA) 0.25 ng/ml, 4 Gy EL-4 B5
[10] = c(PMA) 0.25 ng/ml, 50 Gy EL-4 B5
[11] = c(PMA) 1.3 ng/ml, 50 Gy EL-4 B5

CCCCCCCCCCCCCC(=O)O[C@@H]1[C@@H](C)[C@@]2(O)[C@@H](C=C(CO)C[C@]3(O)C(=O)C(C)=C[C@@H]23)[C@@H]2C(C)(C)[C@]12OC(C)=O [PMA, phorbol-12-myristate-13-acetate]
IgG+ Frequency (PMA 0.25 ng/ml, 8 Gy, 20k/Well): 88.1 % total wells | Average IgG Productivity of all IgG+ wells [1]: 1.893 µg/mL | IgG+ Frequency [1]: 20.2 % total wells | frequency per plate of rbIgG-positive wells (PMA 0.43 ng/ml, 0.031x CM, 5,000 non-irradiated EL-4 B5 cells per well): 67.9 % total | frequency per plate of rbIgG-positive wells (PMA 0.43 ng/ml, 0.1x CM, 5,000 non-irradiated EL-4 B5 cells per well): 72.6 % total | frequency per plate of rbIgG-positive wells (PMA 0.43 ng/ml, 0.31x CM, 5,000 non-irradiated EL-4 B5 cells per well): 71.4 % total | frequency per plate of rbIgG-positive wells (PMA 0.43 ng/ml, 1x CM, 5,000 non-irradiated EL-4 B5 cells per well): 50.0 % total | frequency per plate of rbIgG-positive wells (PMA 0.43 ng/ml, 2x CM, 5,000 non-irradiated EL-4 B5 cells per well): 45.2 % total | Average IgG Productivity of all IgG+ wells (PMA 0.57 ng/ml, 3 Gy, 15k/Well): 6.067 µg/mL | IgG+ Frequency (PMA 0.57 ng/ml, 3 Gy, 15k/Well): 32.1 % total wells | Average IgG Productivity of all IgG+ wells (PMA 0.57 ng/ml, 4 Gy, 20k/Well): 5.834 µg/mL | IgG+ Frequency (PMA 0.57 ng/ml, 4 Gy, 20k/Well): 72.6 % total wells | Average IgG Productivity of all IgG+ wells (PMA 0.57 ng/ml, 5 Gy, 20k/Well): 5.269 µg/mL | IgG+ Frequency (PMA 0.57 ng/ml, 5 Gy, 20k/Well): 86.9 % total wells | Average IgG Productivity of all IgG+ wells (PMA 0.57 ng/ml, 8 Gy, 20k/Well): 5.72 µg/mL | IgG+ Frequency (PMA 0.57 ng/ml, 8 Gy, 20k/Well): 81 % total wells | Average IgG Productivity of all IgG+ wells [2]: 4.876 µg/mL | IgG+ Frequency [2]: 84.5 % total wells | frequency per plate of rbIgG-positive wells (PMA 0.73 ng/ml, 0.031x CM, 5,000 non-irradiated EL-4 B5 cells per well): 76.2 % total | frequency per plate of rbIgG-positive wells (PMA 0.73 ng/ml, 0.1x CM, 5,000 non-irradiated EL-4 B5 cells per well): 75.0 % total | frequency per plate of rbIgG-positive wells (PMA 0.73 ng/ml, 0.31x CM, 5,000 non-irradiated EL-4 B5 cells per well): 67.9 % total | frequency per plate of rbIgG-positive wells (PMA 0.73 ng/ml, 1x CM, 5,000 non-irradiated EL-4 B5 cells per well): 36.9 % total | frequency per plate of rbIgG-positive wells (PMA 0.73 ng/ml, 2x CM, 5,000 non-irradiated (0 Gy) EL-4 B5 cells per well): 48.8 % total | Average IgG Productivity of all IgG+ wells [3]: 4.937 µg/mL | IgG+ Frequency [3]: 8.3 % total wells | Average IgG Productivity of all IgG+ wells (PMA 1.3 ng/ml, 4 Gy, 20k/Well): 5.011 µg/mL | IgG+ Frequency (PMA 1.3 ng/ml, 4 Gy, 20k/Well): 72.6 % total wells | Average IgG Productivity of all IgG+ wells (PMA 1.3 ng/ml, 5 Gy, 20k/Well): 4.8 µg/mL | IgG+ Frequency (PMA 1.3 ng/ml, 5 Gy, 20k/Well): 84.5 % total wells | Average IgG Productivity of all IgG+ wells (PMA 1.3 ng/ml, 8 Gy, 20k/Well): 5.198 µg/mL | IgG+ Frequency (PMA 1.3 ng/ml, 8 Gy, 20k/Well): 88.1 % total wells | Average IgG Productivity of all IgG+ wells (PMA 1.3 ng/ml, 50 Gy, 50k/Well): 5.427 µg/mL | IgG+ Frequency (PMA 1.3 ng/ml, 50 Gy, 50k/Well): 83.3 % total wells | average productivity/plate, IgG+ wells [4]: 3.90 µg/mL | frequency/plate rbIgG+ [4]: 54.0 % total | average productivity/plate, IgG+ wells [5]: 3.90 µg/mL | frequency/plate rbIgG+ [5]: 55.6 % total | average productivity/plate, IgG+ wells [6]: 1.36 µg/mL | frequency/plate rbIgG+ [6]: 52.4 % total | average productivity/plate, IgG+ wells [7]: 3.72 µg/mL | frequency/plate rbIgG+ [7]: 57.5 % total | average productivity/plate, IgG+ wells [8]: 3.78 µg/mL | frequency/plate rbIgG+ [8]: 56.0 % total | average productivity/plate, IgG+ wells [9]: 3.83 µg/mL | frequency/plate rbIgG+ [9]: 64.3 % total | average productivity/plate, IgG+ wells [10]: 2.48 µg/mL | frequency/plate rbIgG+ [10]: 54.4 % total | average productivity/plate, IgG+ wells (c(PMA) 0.5 ng/ml, 4 Gy EL-4 B5): 4.06 µg/mL | frequency/plate rbIgG+ (c(PMA) 0.5 ng/ml, 4 Gy EL-4 B5): 57.5 % total | average productivity/plate, IgG+ wells (c(PMA) 1.3 ng/ml, 4 Gy EL-4 B5): 3.57 µg/mL | frequency/plate rbIgG+ (c(PMA) 1.3 ng/ml, 4 Gy EL-4 B5): 56.0 % total | average productivity/plate, IgG+ wells [11]: 3.51 µg/mL | frequency/plate rbIgG+ [11]: 58.7 % total
